According to patent US4812393A, “Fluorescent dyes and biological and analytical uses thereof” (priority 1986, dated 1989):

How the values were obtained:
[1] = Fluorescence emission maximum and fluorescence quantum efficiency of the dyes; format: physicochemical
Protocol: Representative novel dyes of this invention are listed in Table I below in reference to the illustrated structure above. Of these, Compound 4 is preferred for use in biological studies and assays because it can be used at a pH of 7 or less. In Table I, the "fluorescence quantum efficiency" was determined by procedures described by Birks in Standardization in Spectrophotometry and Luminescence Measurements, Mielenz et al (Eds.), Nat. Bureau of Standards Special Publication 466 (1977).

[2] = system: carboxyl esterase, Type I; test: Determination of an esterase enzyme by hydrolysis of the hydrolyzable substrate (fluorometer); format: biochemical; settings: final enzyme activity 48 I.U., HEPES pH 7.8, excitation 540 nm, emission 610 nm
Protocol: The hydrolyzable compound used is represented by the structure: [drawing 11]
A test solution was prepared from the following: the hydrolyzable substrate (50 μl of a solution of 0.1 mg/0.5 ml of methanol), 0.05 molar HEPES buffer (3 μl, pH 7.8) and the esterase enzyme carboxyl esterase, Type I (50 μl). A Control solution was similarly prepared by omitting the enzyme. Fluorescence of the released fluorescent dye was measured with a commercially available fluorometer when the enzyme was first added to the test solution and at various times thereafter (excitation at 540 nm and emission at 610 nm). The Control solution was similarly evaluated at the indicated times.

Compound	Emission (λmax) ([1]; in methanol) [nm]	Fluorescence Quantum Efficiency ([1]; in methanol)	Emission (λmax) ([1]; in 5:1 water/methanol) [nm]	Fluorescence Quantum Efficiency ([1]; solvent in 5:1 water/methanol)	also measured
Cc1cc(O)cc2c1cc1c3c(cccc32)C(=O)C=C1 [Compound 1]	542	0.4			
Cc1cc(O)cc2c1cc1c3c(cccc32)C(=O)C=C1 [Compound 2]			635	0.18	
Cc1cc(O)c(Cl)c2c1cc1c3c(cccc32)C(=O)C=C1 [Compound 3]	629	0.55			
Cc1cc(O)c(Cl)c2c1cc1c3c(cccc32)C(=O)C=C1 [Compound 4]			628	0.42	
Cc1cc(OC(=O)N(C)c2ccccc2)c(Cl)c2c1cc1c3c(cccc32)C(=O)C=C1 [Compound 5]			550	0.01	
Cc1cc(N2CCCC2)cc2c1cc1c3c(cccc32)C(=O)C=C1 [Compound 6]	655	0.52			
CCCCOC(=O)c1cc(O)cc2c1cc1c3c(cccc32)C(=O)C=C1 [Compound 7]	525	0.4			
CCCCOC(=O)c1cc(O)cc2c1cc1c3c(cccc32)C(=O)C=C1 [Compound 8]			630	0.3	
CCCCOC(=O)c1cc(O)c(Cl)c2c1cc1c3c(cccc32)C(=O)C=C1 [Compound 9]			625	0.56	
CC(=O)Oc1cc(C)c2cc3c4c(cccc4c2c1Cl)C(=O)C=C3 [Example 6]					Δ Relative Fluorescence (Minutes) 0 ([2]; 0 minutes): 8.1; Δ Relative Fluorescence (Minutes) 1 ([2]; 1 minute): 31.5; Δ Relative Fluorescence (Minutes) 2 ([2]; 2 minutes): 32.1; Δ Relative Fluorescence (Minutes) 5 ([2]; 5 minutes): 33.3
